Laboratory results: patent US10328163B2, “Compounds binding to neuropathological aggregates” (Technische Universität München, priority 2014, dated 2019)
“Also recorded” adds a separate entry of the source. Like-named read-outs stand apart in the source and are kept apart here.

Columns and labels:
log P (octanol/PBS) = type: physicochemical; settings: Table 2
Excerpt: Lipophilicity of CNS tracers plays an important role on blood brain barrier (BBB) and neuronal cells uptake. Therefore a library of ^18F-bithiazoles with high binding affinity towards Aβ1-40, Aβ1-42 τ, α-Syn were synthesized and log P (octanol/PBS) of these compounds measured (Table 2). The log P values were between 1.1-3.2.

Aβ1-42 = Aβ1-42 (Homo sapiens, UniProt P05067); test: Competition binding assay vs [^3H]PiB on synthetic amyloid peptide aggregates (Aβ1-42); settings: for inhibition at 0.1 µM: 100 nM; for Ki: read-out: Affinity Ki, Aβ1-42
Description: (§1) Saturation and competition binding assays of compounds in this invention towards synthetic amyloid peptides, human tau-441 recombinant and human α-synuclein recombinant aggregate (fibrils) were performed similar to previously reported assays (Manook et al. 2012 and Yousefi et al. 2011) and adapted to the change of peptides and label. Aggregates sample was deployed on 96-well cell culture plates (Greiner Bio-One, Germany) to a final reaction volume of […] per well using 8-channel electronic pipettes (Mettler Toledo, Germany) giving 12-24 octuples of data points per sample. Bound and free fractions were separated by vacuum filtration through polyethyleneimine-pretreated GF/B glass filtermats using a semi-automated Harvester 96 Mach II M (Tomtec, USA). Filters were cut and retained radioactivity determined using an automatic NaI(TI) well-type γ-detector (Wallac 1480-011 Automatic Gamma Counter, PerkinElmer, USA). Data were processed and analyzed using GraphPad Prism 6.0 (GraphPad Software, USA).

[1] = molecular target: human tau-441 recombinant aggregate (fibrils) (Homo sapiens, UniProt P10636); test: Saturation and competition binding assay on tau aggregates (fibrils)
Description: as §1

[2] = test system: Aβ1-40, Aβ1-42, τ, α-Syn aggregates; test: In vitro selectivity / binding profile across aggregates (potential use: targeting of); settings: for Potential Use: Targeting of (in vitro selectivity): Table 2
Description: as §1

Aβ1-40 = Aβ1-40 (Homo sapiens, UniProt P05067); test: Competition binding assay vs [^3H]PiB on synthetic amyloid peptide aggregates (Aβ1-40); settings: for inhibition at 0.1 µM: 100 nM; for Ki: read-out: Affinity Ki, Aβ1-40
Description: as §1

[3] = molecular target: human α-synuclein recombinant aggregate (fibrils) (Homo sapiens, UniProt P37840); test: Saturation and competition binding assay on α-synuclein aggregates (fibrils); settings: read-out: Affinity Ki, α-syn
Description: as §1

β-amyloids = test: In vitro staining of APP/PS1 tg mouse brain; type: binding; settings: 24 month old, 1% solution of compound
[4] = molecular target: T1, Aβ1-40, Aβ1-42, τ, α-Syn aggregates; test: In vitro selectivity / binding profile across aggregates (potential use: targeting of); settings: span over all aggregate types, summary of Table 1; read-out: in vitro affinity (Ki) to β-amyloids, NFT τ and synuclein aggregates
T1 construct: other: span over all aggregate types, text summar
Description: as §1

Aβ and NFT = test: Ex vivo validation on APP/PS1-tau triple transgenic mouse brain, cross-validated with thioflavin S and AT8; type: in vivo
[5] = Table 3, read-out: Affinity Ki, τ
[6] = Table 1, read-out: Affinity Ki, T

Sequence of Aβ1-42 (P05067 672-713): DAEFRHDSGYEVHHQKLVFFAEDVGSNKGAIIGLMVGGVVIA
Sequence of human tau-441 recombinant aggregate (fibrils) (P10636 1-441 isoform P10636-8): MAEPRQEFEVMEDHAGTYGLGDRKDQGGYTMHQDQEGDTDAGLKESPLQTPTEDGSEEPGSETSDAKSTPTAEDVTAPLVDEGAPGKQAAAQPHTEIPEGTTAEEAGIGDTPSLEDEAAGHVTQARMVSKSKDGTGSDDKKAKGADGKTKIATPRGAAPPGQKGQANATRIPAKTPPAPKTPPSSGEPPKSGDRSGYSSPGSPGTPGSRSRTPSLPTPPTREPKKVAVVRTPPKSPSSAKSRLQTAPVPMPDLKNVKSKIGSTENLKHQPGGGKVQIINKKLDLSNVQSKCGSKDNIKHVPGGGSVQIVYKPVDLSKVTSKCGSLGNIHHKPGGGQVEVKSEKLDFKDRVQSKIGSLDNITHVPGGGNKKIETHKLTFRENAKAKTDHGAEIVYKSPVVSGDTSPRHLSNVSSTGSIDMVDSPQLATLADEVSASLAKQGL
Sequence of Aβ1-40 (P05067 672-711): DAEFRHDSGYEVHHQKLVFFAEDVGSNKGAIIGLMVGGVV

CN(C)c1ccc(-c2csc(-c3nc(-c4ccc(F)nc4)cs3)n2)cc1 [Compound 21]
logP (log P (octanol/PBS)): 2.1
inhibition at 0.1 µM (Aβ1-42; Table 3): 88 ± 1%
Ki (Aβ1-42; Table 3): 0.006 µM
Ki [1, 5]: > 1 µM
Potential Use: Targeting of (in vitro selectivity) [2]: Aβ
Potential Use: Targeting of ([2]; Table 3): Aβ
inhibition at 0.1 µM (Aβ1-40; Table 3): 89 ± 2%
Ki (Aβ1-40; Table 3): 0.006 µM
Ki ([3]; Table 3): > 1 µM

Nc1ccc(-c2csc(-c3nc(-c4ccc(NCCOCCOCCF)cc4)cs3)n2)cc1 [Compound 12]
logP (log P (octanol/PBS)): 2
Potential Use: Targeting of (in vitro selectivity) [2]: Aβ

CN(C)c1ccc(-c2csc(-c3nc(-c4ccc(O)cc4)cs3)n2)cc1 [Compound 1]
inhibition at 0.1 µM (Aβ1-42; Table 1): 88 ± 1%
Ki (Aβ1-42; Table 1): 0.006 µM
Ki [1, 6]: > 1 µM
Potential Use: Targeting of ([2]; Table 1): Aβ
inhibition at 0.1 µM (Aβ1-40; Table 1): 94%
Ki (Aβ1-40; Table 1): 0.004 µM
Ki ([3]; Table 1): > 1 µM

CN(C)c1ccc(-c2csc(-c3nc(-c4ccc(O)nc4)cs3)n2)cc1 [Compound 20]
logP (log P (octanol/PBS)): 1.9
inhibition at 0.1 µM (Aβ1-42; Table 3): 89 ± 1%
Ki (Aβ1-42; Table 3): 0.006 µM
Ki [1, 5]: > 1 µM
Potential Use: Targeting of (in vitro selectivity) [2]: Aβ
Potential Use: Targeting of ([2]; Table 3): Aβ
inhibition at 0.1 µM (Aβ1-40; Table 3): 90%
Ki (Aβ1-40; Table 3): 0.005 µM
Ki ([3]; Table 3): > 1 µM

Oc1ccc(-c2csc(-c3nc(-c4ccc(OCCOCCF)c(O)c4)cs3)n2)cc1O [Compound 16]
logP (log P (octanol/PBS)): 1.1
Potential Use: Targeting of (in vitro selectivity) [2]: PAN

Oc1ccc(-c2csc(-c3nc(-c4ccc(OCCOCCOCCF)cc4)cs3)n2)cc1 [Compound 17]
logP (log P (octanol/PBS)): 1.8
Potential Use: Targeting of (in vitro selectivity) [2]: The low binding site of Aβ

FCCOc1ccc(-c2csc(-c3nc(-c4ccc5c(c4)OCO5)cs3)n2)cc1 [Compound 10]
logP (log P (octanol/PBS)): 2.6
Potential Use: Targeting of (in vitro selectivity) [2]: α-syn

FCCOCCOc1ccc(-c2csc(-c3nc(-c4ccc5c(c4)OCO5)cs3)n2)cc1 [Compound 11]
logP (log P (octanol/PBS)): 2.5
Potential Use: Targeting of (in vitro selectivity) [2]: α-syn

CN(C)c1ccc(-c2csc(-c3nc(-c4ccc(OCF)cc4)cs3)n2)cc1 [Compound 7]
logP (log P (octanol/PBS)): 3.2
Potential Use: Targeting of (in vitro selectivity) [2]: Aβ

Fc1ccc(-c2cc(-c3csc(-c4nc(-c5ccc6c(c5)OCO6)cs4)n3)on2)cc1 [Compound 22]
logP (log P (octanol/PBS)): 3.2
inhibition at 0.1 µM (Aβ1-42; Table 3): 35 ± 2%
Ki (Aβ1-42; Table 3): 0.492 µM
Ki [1, 5]: > 1 µM
Potential Use: Targeting of (in vitro selectivity) [2]: α-syn
inhibition at 0.1 µM (Aβ1-40; Table 3): 20 ± 1%
Ki (Aβ1-40; Table 3): > 0.5 µM
Ki ([3]; Table 3): 0.006 µM

CN(C)c1ccc(-c2csc(-c3nc(-c4ccc(OCCOCCF)cc4)cs3)n2)cc1 [Compound 13]
logP (log P (octanol/PBS)): 2.6
Potential Use: Targeting of (in vitro selectivity) [2]: Aβ

CN(C)c1ccc(-c2csc(-c3nc(-c4ccc(NCCOCCOCCF)cc4)cs3)n2)cc1 [Compound 19]
logP (log P (octanol/PBS)): 2.4
Potential Use: Targeting of (in vitro selectivity) [2]: Aβ

Oc1cc(-c2csc(-c3nc(-c4ccc5c(c4)OCO5)cs3)n2)ccc1OCCOCCF [Compound 9]
logP (log P (octanol/PBS)): 1.9
Potential Use: Targeting of (in vitro selectivity) [2]: PAN

COc1sc(-c2csc(-c3nc(-c4ccc5c(c4)OCO5)cs3)n2)cc1F [Compound 23]
logP (log P (octanol/PBS)): 2.9
inhibition at 0.1 µM (Aβ1-42; Table 3): 86 ± 1%
Ki (Aβ1-42; Table 3): 0.01 µM
Ki [1, 5]: 0.01 µM
Potential Use: Targeting of (in vitro selectivity) [2]: PAN
Potential Use: Targeting of ([2]; Table 3): PAN
inhibition at 0.1 µM (Aβ1-40; Table 3): 87 ± 2%
Ki (Aβ1-40; Table 3): 0.009 µM
Ki ([3]; Table 3): 0.007 µM

CCOc1ccc(-c2csc(-c3nc(-c4ccc(OC)cc4)cs3)n2)cc1 [Compound 6]
inhibition at 0.1 µM (Aβ1-42; Table 1): 30 ± 1%
Ki [1, 6]: > 1 µM
Potential Use: Targeting of ([2]; Table 1): α-syn aggregates low binding site
inhibition at 0.1 µM (Aβ1-40; Table 1): 22 ± 1%
Ki ([3]; Table 1): 0.371 µM

COc1ccc(-c2csc(-c3nc(-c4ccc5c(c4)OCO5)cs3)n2)cc1O [Compound 2]
inhibition at 0.1 µM (Aβ1-42; Table 1): 86 ± 1%
Ki (Aβ1-42; Table 1): 0.007 µM
in vitro staining of brain (β-amyloids): specific binding to β-amyloids; also recorded: targets Aβ in the mouse model
Ki [1, 6]: 0.012 µM
Ki [4]: 0.007 to 0.012 µM
Potential Use: Targeting of ([2]; Table 1): Aβ, α-syn, τ- aggregates (PAN- ligand)
inhibition at 0.1 µM (Aβ1-40; Table 1): 81 ± 2%
Ki (Aβ1-40; Table 1): 0.01 µM
ex vivo brain staining, targets labelled (Aβ and NFT; APP/PS1-tau triple transgenic mouse, 24 month old, 45 min p.i., 0.6 mg in DMSO, cortical (FIG. 3) and hippocampus (FIG. 4) region): targets Aβ and NFT in the mouse model
specificity of binding, ex vivo and in vitro validation (Aβ and NFT; APP/PS1 and APP/PS1-tau triple tg mouse model of AD brain): specific binding of compound 2 to Aβ and NFT
Ki ([3]; Table 1): 0.009 µM

FCOc1ccc(-c2csc(-c3nc(-c4ccc5c(c4)OCO5)cs3)n2)cc1 [Compound 15]
logP (log P (octanol/PBS)): 2.6
Potential Use: Targeting of (in vitro selectivity) [2]: α-syn

CCOc1ccc(-c2csc(-c3nc(-c4ccc5c(c4)OCO5)cs3)n2)cc1 [Compound 4]
inhibition at 0.1 µM (Aβ1-42; Table 1): 45 ± 2%
Ki (Aβ1-42; Table 1): 0.386 µM
Ki [1, 6]: 0.558 µM
inhibition at 0.1 µM (Aβ1-40; Table 1): 11 ± 2%
Ki ([3]; Table 1): 0.01 µM

CCCCOc1ccc(-c2csc(-c3nc(-c4ccc(OC)c(F)c4)cs3)n2)cc1 [Compound 5]
inhibition at 0.1 µM (Aβ1-42; Table 1): 45 ± 1%
Ki (Aβ1-42; Table 1): 0.38 µM
Ki [1, 6]: > 1 µM
Potential Use: Targeting of ([2]; Table 1): Aβ, α-syn aggregates low binding site
inhibition at 0.1 µM (Aβ1-40; Table 1): 11%
Ki ([3]; Table 1): 0.328 µM

COc1ccc(-c2csc(-c3nc(-c4ccc5c(c4)OCO5)cs3)n2)cc1F [Compound 3]
inhibition at 0.1 µM (Aβ1-42; Table 1): 45 ± 2%
Ki (Aβ1-42; Table 1): 0.382 µM
Ki [1, 6]: > 1 µM
inhibition at 0.1 µM (Aβ1-40; Table 1): 22 ± 1%
Ki ([3]; Table 1): 0.003 µM

FCCOCCOCCOc1ccc(-c2csc(-c3nc(-c4ccc5c(c4)OCO5)cs3)n2)cc1 [Compound 18]
logP (log P (octanol/PBS)): 2.3
Potential Use: Targeting of (in vitro selectivity) [2]: α-syn

Oc1cc(-c2csc(-c3nc(-c4ccc5c(c4)OCO5)cs3)n2)ccc1OCCF [Compound 8]
logP (log P (octanol/PBS)): 2.1
Potential Use: Targeting of (in vitro selectivity) [2]: PAN

Oc1ccc(-c2csc(-c3nc(-c4ccc(OCCOCCF)cc4)cs3)n2)cc1 [Compound 14]
logP (log P (octanol/PBS)): 1.9
Potential Use: Targeting of (in vitro selectivity) [2]: The low binding site of Aβ
